Data taken from ChEMBL document CHEMBL6096721, “Discovery of Selenium-Containing Derivatives as Potent and Orally Bioavailable GLP-1R Agonists” (J Med Chem, 2025).

Legend:
[1] = target: T1, Glucagon-like peptide 1 receptor (Homo sapiens, UniProt P43220); assay: Agonist activity at human GLP-1R expressed in HEK293 cells assessed as cAMP accumulation incubated for 30 mins by LANCE ultra cAMP assay; format: functional, cell-based
[2] = target: T1, Glucagon-like peptide 1 receptor; assay: Partial agonist activity at LgBit-tagged GLP-1R (unknown origin) transfected in HEK293 cells co-transfected with Smbit-tagged beta-arrestin-1 assessed as beta-arrestin recruitment incubated for 5 mins by envision microplate reader analysis; format: functional, cell-based
[3] = target: T1, Glucagon-like peptide 1 receptor; assay: Partial agonist activity at LgBit-tagged GLP-1R (unknown origin) transfected in HEK293 cells co-transfected with Smbit-tagged beta-arrestin-1 assessed as beta-arrestin recruitment by measuring maximal efficacy incubated for 5 mins by envision microplate reader analysis relative to control; format: functional, cell-based
[4] = Cmax in male ICR mouse at 2 mg/kg, iv measured after 24 hrs by LC-MS/MS analysis; format: ADME, organism-based; details: in vivo
[5] = AUC (0 to t) in male ICR mouse at 2 mg/kg, iv measured after 24 hrs by LC-MS/MS analysis; format: ADME, organism-based; details: in vivo
[6] = Half-life in male ICR mouse at 2 mg/kg, iv measured after 24 hrs by LC-MS/MS analysis; format: ADME, organism-based; details: in vivo
[7] = MRT (0 to t) in male ICR mouse at 2 mg/kg, iv measured after 24 hrs by LC-MS/MS analysis; format: ADME, organism-based; details: in vivo
[8] = Apparent volume of distribution in male ICR mouse at 2 mg/kg, iv measured after 24 hrs by LC-MS/MS analysis; format: ADME, organism-based; details: in vivo, read-out: Vz
[9] = Clearance in male ICR mouse at 2 mg/kg, iv measured after 24 hrs by LC-MS/MS analysis; format: ADME, organism-based; details: in vivo
[10] = Cmax in male ICR mouse at 10 mg/kg, po measured after 24 hrs by LC-MS/MS analysis; format: ADME, organism-based; details: in vivo
[11] = Tmax in male ICR mouse at 10 mg/kg, po measured after 24 hrs by LC-MS/MS analysis; format: ADME, organism-based; details: in vivo
[12] = AUC (0 to t) in male ICR mouse at 10 mg/kg, po measured after 24 hrs by LC-MS/MS analysis; format: ADME, organism-based; details: in vivo
[13] = Half-life in male ICR mouse at 10 mg/kg, po measured after 24 hrs by LC-MS/MS analysis; format: ADME, organism-based; details: in vivo
[14] = MRT (0 to t) in male ICR mouse at 10 mg/kg, po measured after 24 hrs by LC-MS/MS analysis; format: ADME, organism-based; details: in vivo
[15] = Oral bioavailability in male ICR mouse at 10 mg/kg measured after 24 hrs by LC-MS/MS analysis; format: ADME, organism-based; details: in vivo

T1 sequence (P43220 whole entry): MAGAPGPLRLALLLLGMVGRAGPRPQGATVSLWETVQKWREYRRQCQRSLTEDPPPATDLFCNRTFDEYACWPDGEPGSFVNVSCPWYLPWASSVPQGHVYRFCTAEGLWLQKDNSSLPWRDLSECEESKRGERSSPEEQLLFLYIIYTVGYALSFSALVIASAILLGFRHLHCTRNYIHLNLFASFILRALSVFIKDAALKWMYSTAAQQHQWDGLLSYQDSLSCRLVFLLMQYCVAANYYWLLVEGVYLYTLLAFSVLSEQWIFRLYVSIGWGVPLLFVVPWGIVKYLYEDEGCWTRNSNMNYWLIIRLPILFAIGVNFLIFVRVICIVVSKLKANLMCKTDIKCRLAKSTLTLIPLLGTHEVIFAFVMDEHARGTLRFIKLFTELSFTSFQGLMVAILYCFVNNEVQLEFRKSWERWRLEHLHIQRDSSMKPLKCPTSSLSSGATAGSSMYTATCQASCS

CC(C)[C@H](NCc1nc2ccc(C(=O)O)cc2n1C[C@@H]1CCO1)C(=O)Nc1cccc([Se]Cc2ccc(C#N)cc2F)n1 gave an EC50 [1] greater than 200 µM.

COc1cc(C(F)(F)F)ccc1C[Se]c1cccc(N2C=NN(Cc3nc4c(F)cc(C(=O)O)cc4n3C[C@@H]3CCO3)CC2)n1 showed an EC50 [2] greater than 200 µM, an Emax [3] of 28% and a Cmax [4] of 16500 ng/mL. It also gave an AUC(0-t) at 24 h [5] of 3720 ng·h/mL, a half-life [6] of 5.71 h and an MRT last at 24 h [7] of 0.39 h. The Vd [8] was 4.27 L/kg, the clearance [9] was 9.05 mL/min/kg and the Cmax [10] was 283 ng/mL. It also gave a Tmax [11] of 0.42 h, an AUC(0-t) at 24 h [12] of 582 ng·h/mL and a half-life [13] of 6.06 h. The MRT last at 24 h [14] was 3.21 h and the bioavailability [15] was 3.2%.

For CC(C)[C@@H](NCc1nc2ccc(C(=O)O)cc2n1C[C@@H]1CCO1)C(=O)Nc1cccc([Se]Cc2ccc(C#N)cc2F)n1, the EC50 [1] was greater than 200 µM.

COc1cc(C#N)ccc1C[Se]c1cccc(N2C=NN(Cc3nc4c(F)cc(C(=O)O)cc4n3C[C@@H]3CCO3)CC2)n1 gave an EC50 [2] greater than 200 µM, an Emax [3] of 12% and a Cmax [4] of 13400 ng/mL. The AUC(0-t) at 24 h [5] was 3260 ng·h/mL, the half-life [6] was 4.52 h and the MRT last at 24 h [7] was 0.4 h. It also gave a Vd [8] of 4.25 L/kg, a clearance [9] of 10.3 mL/min/kg and a Cmax [10] of 324 ng/mL. It also gave a Tmax [11] of 0.5 h, an AUC(0-t) at 24 h [12] of 537 ng·h/mL and a half-life [13] of 7.02 h. For the same molecule, the MRT last at 24 h [14] was 2.88 h and the bioavailability [15] was 3.38%.
